The CC50 is the concentration giving 50% cytotoxicity. The term MBC denotes the smallest concentration meeting the test's criterion for killing. A low value points to greater bactericidal potency. The term MIC denotes the smallest concentration in the dilution series that meets the test's criterion for growth inhibition.

Ends that are not written are not given here.

Data set [1] relates to non-immune cells (epithelial cells). Put plainly: Survival of non-immune cells. In kind it is cell-based. As to conditions: doses of the micromolar order; mouse and human epithelial cells. The protocol: The following non-immune cells were extracted after sacrificing C57BL6 mice or in a surgical context: epithelial cells, adipocytes, hepatocytes.
The peptides are incubated at 37° C., 5% CO2 in the presence of 500,000 immune and non-immune cells in RPMI medium at varied concentrations and at varied times. Peptide-free cells are used as the negative control and cells incubated for 5 min at 50° C. or in the presence of DMSO (30%) are used as the positive control. After incubation, the cells are washed then labelled with propidium iodide so as to measure the cell viability. The cell viability is analysed by counting or with flow cytometry in the presence of antibodies coupled with fluorochromes corresponding to characteristic markers of each cell population. The LC50 is then calculated as being the concentration of DA2N and DA2NEQ peptides inducing the death of 50% of each one of the immune cell populations.
Cytometry data processing is carried out with FlowJo software.

Data set [2] can be described thus: LC50 on red blood cells. In kind it is cell-based. Particulars: Human red blood cells. The protocol:
The human red blood cells were purified from the whole blood of healthy donors (blood bank, IMSS, Cuernavaca, Mexico).
(§1) The peptides are incubated at 37° C., 5% CO2 in the presence of 500,000 red blood cells in RPMI medium at varied concentrations and at varied times. Peptide-free cells are used as the negative control and cells incubated for 5 min at 50° C. or in the presence of DMSO (30%) are used as the positive control. The LC50 is then calculated as being the concentration of DA2N and DA2NEQ peptides inducing the death of 50% of the red blood cells.

Data set [3] in a line: LC50 on red blood cells. As to conditions: C57BL6; Mouse red blood cells. The class given is cell-based. The procedure: The mouse red blood cells are obtained from C57BL6 mouse bone marrow.
as §1

For the next data set, the system named is Human red blood cells. Put plainly: Haemolytic activity. The class given is cell-based. Particulars: 10 µM and 50 µM, 1h at 37° C. The protocol:
(§2) Mouse or donor blood is washed three times in 10 volumes of PBS at 4° C. by centrifugation at 800 g for 10 minutes. The blood sediment is finally diluted to 4% (v/v) in PBS buffer. The test was carried out as follows: either 10 µM, or 50 µM of peptide was added to 100 µL of red blood cell suspension.
(§3) After 1h of incubation at 37° C. followed by centrifugation (800 g, 15 min), the absorbance of the supernatant was measured at 550 nm.
(§4) The negative control for this test (0% haemolysis) contains 5 µL of PBS buffer instead of the solution containing the peptide and the positive control (100% haemolysis) contains 5 µL of 1% Triton X100 instead of the solution containing the peptide.

The subject of another data set is Mouse red blood cells. Put plainly: Haemolytic activity. The class given is cell-based. As to conditions: results not shown. The procedure: as §2, §3, §4
The haemolytic activity of the antimicrobial peptides was measured as per the protocol described in part 3.1 of Example 3.

In data set [4] the test system is psoriatic lesions and angiogenesis of skin. Put plainly: Imiquimod-induced psoriasis model. In kind it is in vivo, balb/c mice. As to conditions: topical, 10 µg; no Imiquimod treatment. The procedure:
The DA2N and DA2NEQ peptides were tested in an Imiquimod-induced psoriasis model described by Van der Fits (Van der Fits et al. 2009. Journal of immunology. 182(9):5836-5845) on female balb/c mice, aged 7 to 8 weeks.
31 mg of commercial cream containing 5% Imiquimod (Aldara, 3 M Pharmaceuticals) is applied topically on about 2.5 cm of the previously shaven ventral region of the mice for 6 days. The first psoriatic lesions appear on the 3rd day. The peptides resuspended in the cream are applied topically or intravenously (10 µg) for the first 3 days of Imiquimod treatment. Mice with no Imiquimod treatment and/or with no peptide application were used as controls. On the 6th day, the mice are sacrificed and the skin sampled is analysed by microscopy (skin lesions and angiogenesis).

The subject of another data set is Escherichia coli ML35p. Put plainly: MIC/MBC, growth inhibition in liquid medium (Example 2). The class given is cell-based. As to conditions: Table 2. From the text:
(§5) Escherichia coli (ATCC 8739, ATCC ML35p and P7 BLSE), Pseudomonas aeruginosa (ATCC 9027 and ATCC 27853), Klebsiella oxytoca (CIP 7932), Klebsiella pneumoniae (CIP 52.211), Salmonella enterica (CIP 8297), Yersinia ruckeri (ATCC 29473), Vibrio parahemolyticus (IFREMER 01 01/252), Staphylococcus aureus (ATCC 6538, ST 1065 and MRSA), Staphylococcus epidermidis (BM 3302), Listeria monocytogenes (SOR 100), Enterococcus faecalis (CIP A186, CIP 103015)), Kocuria rhizophila (ATCC 9341), Lactococcus garviae (ATCC 43921), Bacillus subtilis (CIP 52.65).
(§6) For each strain, a 5 ml pre-culture in LB medium is prepared by inoculating a colony of the bacterial strain of interest. The pre-culture is incubated at 37° C. under stirring overnight. The culture is subcultured (30 µL) in 5 mL. The culture concentration is evaluated by measuring the optical density at 620 nm. The concentration is adjusted by dilution so as to obtain a suspension with an OD of 0.05 at 620 nm.
(§7) The MIC is determined using a growth inhibition test in liquid medium. The MIC is defined as being the lowest peptide concentration capable of inhibiting the bacterial strain tested, after incubation for 18 h at 37° C. The test was carried out in a sterile microtitration plate containing 96 wells. A series of increasing concentrations of each peptide (0.2 to 100 µM) was prepared beforehand in sterile MilliQ water. In each well, 10 µL of peptide was incubated with 90 µL of bacterial suspension (10^7 cfu/mL) in yeast extract-free LB medium. The microplate was incubated at 37° C. for 18 h. The bacterial growth was evaluated by measuring the OD at 620 nm using a plate reader.
(§8) The negative growth inhibition control was obtained by replacing the solution containing the peptide by sterile MilliQ water. The positive control suitable for completely inhibiting the growth of the bacterial strains was obtained by replacing the solution containing the peptide by 10 µL of formaldehyde.
(§9) The results are interpreted by calculating the percentage of bacterial growth in each well according to the formula:
(§10) %Growth = (OD well - OD of T0)/(OD of T100-OD of T0)*100 where
(§11) • OD of T100 = OD of growth control (bacterial suspension free from sample under test, 100% growth), • OD of T0 = OD of sterility control (culture medium + bacterium + 10 µL formaldehyde, 0% growth) and • OD well = OD of well for which it is sought to calculate the growth percentage (bacterial suspension + peptide under test).
(§12) The MBC is defined as being the minimum peptide concentration leaving no surviving bacteria of the inoculum after incubation at 37° C. for 24 hours. This test consists of smearing the contents of the well wherein the peptide has inhibited bacterial growth on a Petri dish (LB agar), followed by incubation for 24 h at 37° C.

Data set [5] relates to Pseudomonas aeruginosa ATCC 9027. The data set is described as above. In kind it is cell-based. Particulars: Table 2.
Text: as §5, §6, §7, §8, §9, §10, §11, §12

As to ALWKTLLKKVGKVAGKAVLNAVTNMANQN-OH [DA2N], the “death of non-immune cells” value in data set [1] is “induce the death of immune cells but not of non-immune cells”. Besides, the CC50 in the data set “LC50 on red blood cells [2]” came to 750 µM. In addition, half-maximal cytotoxicity in the data set “LC50 on red blood cells [3]” (CC50) was put at 750 µM. Further, the “haemolysis of human red blood cells” value in the data set with Human red blood cells is recorded as “do not induce the haemolysis”. In the data set on Mouse red blood cells, the “haemolysis of mouse red blood cells” value is recorded as “do not induce the haemolysis”. Moreover, in data set [4], the “angiogenesis of healthy skin” value is recorded as “no effect on the angiogenesis of healthy skin” and the “effect on healthy skin” value is recorded as “no effect on healthy skin”. In the data set on Escherichia coli ML35p, the MBC is reported as 6.25 µM and the MIC worked out at 3.12 µM. Besides, in data set [5], the MBC is on record as 12.5 µM and the MIC was determined as 12.5 µM.

As for “ALWKTLLKKVGKVAGKAVLNAVTNMANQNEQ [DA2NEQ, ALWKTLLKKVGKVAGKAVLNAVTNMANQNEQOH]”, in data set [1], the “death of non-immune cells” value is given as “induce the death of immune cells but not of non-immune cells”. In addition, the half-maximal cytotoxic concentration (CC50) in the data set “LC50 on red blood cells [2]” and in “LC50 on red blood cells [3]” was 750 µM throughout. In addition, the “haemolysis of human red blood cells” value with Human red blood cells is on record as “do not induce the haemolysis”. In the data set with Mouse red blood cells, the “haemolysis of mouse red blood cells” value is recorded as “do not induce the haemolysis”. Moreover, the “angiogenesis of healthy skin” value in data set [4] is recorded as “no effect on the angiogenesis of healthy skin”. Moreover, the “effect on healthy skin” value in data set [4] is “no effect on healthy skin”. Also, the minimum bactericidal concentration (MBC) in the data set with Escherichia coli ML35p is 6.25 µM; in data set [5] it was 25 µM. The minimum inhibitory concentration (MIC) was 6.25 µM against Escherichia coli ML35p and 12.5 µM in data set [5].

The values are drawn from patent US20230192772A1, “ANTIMICROBIAL PEPTIDES AND USES THEREOF” (SORBONNE UNIVERSITE, priority 2016, published 2023).
